According to paper PMC6129397 (Xenobiotica; the fate of foreign compounds in biological …, 2017):
Like-named read-outs stand apart in the source and are kept apart here. Blank lines part the entries; values can stand above or below the molecule they belong to.

Experiments:
[1] = biological target: T1, glucocorticoid receptor (GR) (Homo sapiens, UniProt P04150); test: Glucocorticoid receptor; format: cell-based
T1 sequence (P04150 1-777): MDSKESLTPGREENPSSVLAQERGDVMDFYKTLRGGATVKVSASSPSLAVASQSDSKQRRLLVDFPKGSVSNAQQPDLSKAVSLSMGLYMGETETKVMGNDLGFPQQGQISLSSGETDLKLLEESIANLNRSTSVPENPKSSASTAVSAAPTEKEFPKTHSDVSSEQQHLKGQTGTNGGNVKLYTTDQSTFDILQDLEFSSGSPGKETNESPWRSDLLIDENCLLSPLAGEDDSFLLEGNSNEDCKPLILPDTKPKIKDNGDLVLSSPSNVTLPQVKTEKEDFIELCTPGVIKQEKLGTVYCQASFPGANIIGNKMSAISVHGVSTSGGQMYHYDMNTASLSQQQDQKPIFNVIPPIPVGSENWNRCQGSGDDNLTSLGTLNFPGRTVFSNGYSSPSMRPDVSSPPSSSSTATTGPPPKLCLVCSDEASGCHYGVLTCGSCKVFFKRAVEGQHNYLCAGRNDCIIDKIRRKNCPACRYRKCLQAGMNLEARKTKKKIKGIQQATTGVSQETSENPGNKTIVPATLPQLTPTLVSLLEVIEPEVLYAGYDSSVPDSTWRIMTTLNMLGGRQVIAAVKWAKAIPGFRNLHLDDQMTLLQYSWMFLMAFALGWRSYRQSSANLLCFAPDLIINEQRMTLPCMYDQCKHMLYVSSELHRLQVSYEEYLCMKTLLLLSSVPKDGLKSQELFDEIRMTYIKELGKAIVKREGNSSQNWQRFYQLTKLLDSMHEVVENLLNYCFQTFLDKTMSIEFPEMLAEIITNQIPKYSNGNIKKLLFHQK

[2] = biological target: T2, progesterone receptor (PR) (Homo sapiens, UniProt P06401); test: Progesterone receptor; format: cell-based
T2 sequence (P06401 1-933): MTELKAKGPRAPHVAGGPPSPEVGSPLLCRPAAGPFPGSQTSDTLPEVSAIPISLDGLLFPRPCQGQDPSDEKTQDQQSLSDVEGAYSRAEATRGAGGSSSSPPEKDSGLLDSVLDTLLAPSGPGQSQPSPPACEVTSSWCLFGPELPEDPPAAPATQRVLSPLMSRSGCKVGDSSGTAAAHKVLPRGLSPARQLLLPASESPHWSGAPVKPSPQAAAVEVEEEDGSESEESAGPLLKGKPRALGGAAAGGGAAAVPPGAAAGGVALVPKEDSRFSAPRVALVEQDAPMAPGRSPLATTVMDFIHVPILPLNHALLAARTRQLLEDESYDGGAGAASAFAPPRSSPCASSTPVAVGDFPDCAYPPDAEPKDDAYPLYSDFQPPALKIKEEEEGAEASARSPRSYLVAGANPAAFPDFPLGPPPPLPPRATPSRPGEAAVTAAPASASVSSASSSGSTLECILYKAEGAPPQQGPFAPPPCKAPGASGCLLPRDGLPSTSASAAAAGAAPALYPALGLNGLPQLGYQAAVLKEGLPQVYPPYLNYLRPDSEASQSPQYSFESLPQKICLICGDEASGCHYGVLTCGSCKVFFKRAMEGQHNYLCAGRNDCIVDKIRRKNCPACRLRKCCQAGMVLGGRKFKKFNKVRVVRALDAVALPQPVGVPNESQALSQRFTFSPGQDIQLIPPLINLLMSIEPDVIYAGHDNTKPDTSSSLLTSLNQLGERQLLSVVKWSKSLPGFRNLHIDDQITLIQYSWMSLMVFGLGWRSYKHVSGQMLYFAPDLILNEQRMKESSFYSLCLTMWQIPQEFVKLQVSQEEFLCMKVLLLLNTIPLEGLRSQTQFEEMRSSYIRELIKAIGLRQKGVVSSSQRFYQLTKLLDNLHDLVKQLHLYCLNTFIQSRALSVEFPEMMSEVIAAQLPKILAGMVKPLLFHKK

[3] = tested on: human liver microsomes (HLM); test: Oxidation-glucuronidation assay with HLMs; format: in vitro ADME
[4] = T47D cells, 8 h, 10 nM, versus ethanol

SMILES: C[C@@H]1C[C@H]2[C@@H]3CCC4=CC(=O)C=C[C@]4(C)[C@@]3(F)[C@@H](O)C[C@]2(C)[C@@]1(O)C(=O)CO [Dexamethasone, dexamethasone]
average mRNA fold change GILZ ([1]; MDA-MB-231 cells, 4 h, 0.1 μM): 18.5 fold change | average mRNA fold change SGK1 ([1]; MDA-MB-231 cells, 4 h, 0.1 μM): 5.6 fold change

activity on the GR ([1]; in words): showed activity | pharmacologic activity on the PR ([2]; in words): significant pharmacologic activity | glucuronide formation by HLM ([3]; UDPGA alone (data not shown)): does not form any glucuronides | glucuronide formation by HLM ([3]; co-incubation with both NADPH and UDPGA, 24 hrs): two glucuronides were detected
SMILES: CC(=O)O[C@]1(C(C)=O)CC[C@H]2[C@@H]3C=C(C)C4=CC(=O)CC[C@]4(C)[C@H]3CC[C@@]21C [MA, Megestrol acetate]

average mRNA fold change E2F1 [2, 4]: 4.8 ± 0.4 fold change | average mRNA fold change FKBP5 [2, 4]: 9.5 ± 0.3 fold change | average mRNA fold change GREB1 [2, 4]: 2.2 ± 0.1 fold change
SMILES: CCC(=O)[C@@]1(C)CC[C@H]2[C@@H]3CCC4=CC(=O)CCC4=C3CC[C@@]21C [Metabolite R5020]

SMILES: CC(=O)N1CCN(c2ccc(OCC3COC(Cn4ccnc4)(c4ccc(Cl)cc4Cl)O3)cc2)CC1 (centres unmarked) [ketoconazole]
inhibition of M1 (HLMs; 28 μM MA, ketoconazole 1 μM): 96.2% | inhibition of M2 (HLMs; 28 μM MA, ketoconazole 1 μM): 100% | inhibition of M1 (HLMs; 62 μM MA, ketoconazole 1 μM): 100% | inhibition of M2 (HLMs; 62 μM MA, ketoconazole 1 μM): 100%

SMILES: CO[C@H]1C[C@H](O[C@H]2[C@H](C)[C@@H](O[C@@H]3O[C@H](C)C[C@H](N(C)C)[C@H]3OC(C)=O)[C@@H](C)C[C@@]3(CO3)C(=O)[C@H](C)[C@@H](OC(C)=O)[C@@H](C)[C@@H](C)OC(=O)[C@@H]2C)O[C@@H](C)[C@@H]1OC(C)=O [troleandomycin]
inhibition of M1 (HLMs; 28 μM MA, troleandomycin 50 μM): 93.2% | inhibition of M2 (HLMs; 28 μM MA, troleandomycin 50 μM): 100% | inhibition of M1 (HLMs; 62 μM MA, troleandomycin 50 μM): 94.4% | inhibition of M2 (HLMs; 62 μM MA, troleandomycin 50 μM): 100%
